Experimental data published in US8703961B2, “Thiazole derivatives for the treatment of diseases such as cancer” (Merck Patent GmbH, priority 2009, dated 2014).

Legend:
Test in all cases: filter binding kinase assay
Format in all cases: biochemical
DYRK2 = target: T1, DYRK2 (Homo sapiens, UniProt Q92630); details: derived from % inhibition at 1 μM
T1 construct: purchased
T1 sequence (Q92630 1-601): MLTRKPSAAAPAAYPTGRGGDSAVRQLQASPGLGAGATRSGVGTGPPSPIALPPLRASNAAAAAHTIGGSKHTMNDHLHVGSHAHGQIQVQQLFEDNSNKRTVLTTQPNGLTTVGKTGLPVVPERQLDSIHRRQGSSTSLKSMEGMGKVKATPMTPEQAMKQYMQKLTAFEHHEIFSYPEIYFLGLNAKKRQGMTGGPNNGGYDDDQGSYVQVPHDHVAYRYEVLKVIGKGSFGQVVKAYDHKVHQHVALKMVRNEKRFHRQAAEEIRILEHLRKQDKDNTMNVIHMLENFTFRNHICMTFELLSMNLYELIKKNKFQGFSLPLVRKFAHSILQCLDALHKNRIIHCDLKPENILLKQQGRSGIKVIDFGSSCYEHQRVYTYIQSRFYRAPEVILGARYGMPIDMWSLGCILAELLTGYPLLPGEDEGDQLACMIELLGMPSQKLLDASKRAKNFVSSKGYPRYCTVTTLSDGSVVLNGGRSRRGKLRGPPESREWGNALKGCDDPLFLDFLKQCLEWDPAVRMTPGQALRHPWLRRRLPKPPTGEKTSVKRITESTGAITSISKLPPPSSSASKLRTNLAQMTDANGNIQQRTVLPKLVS
Procedure, shortened: (§1)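 Compound was pre-incubated with enzyme and substrate for 5 minutes at room temperature, then the reaction was started with ATP (added solution at 5, 20 or 50 […] depending on kinase). Orthophosphoric acid stopped it, and phosphorylated substrate captured on P81 filters was quantified by scintillation counting.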

EEF2K = target: T2, EEF2K (Homo sapiens, UniProt O00418); details: derived from % inhibition at 1 μM
T2 construct: purchased
Procedure, shortened: as §1

ROCK2 (Rock II) = target: T3, ROCK2 (Rock II) (Homo sapiens, UniProt O75116); details: for IC50: derived from % inhibition at 1 μM
T3 construct: purchased
Procedure, shortened: as §1

PIM1 = target: T4, PIM1 (Homo sapiens, UniProt P11309); details: derived from % inhibition at 1 μM
T4 construct: purchased
Procedure, shortened: as §1

PAK6 = target: T5, PAK6 (Homo sapiens, UniProt Q9NQU5); details: derived from % inhibition at 1 μM
T5 construct: purchased
Procedure, shortened: as §1

CSK = target: T6, CSK (Homo sapiens, UniProt P41240); details: derived from % inhibition at 1 μM
T6 construct: purchased
Procedure, shortened: as §1

PRKCA = target: T7, PRKCA (Homo sapiens, UniProt P17252); details: derived from % inhibition at 1 μM
T7 construct: purchased
Procedure, shortened: as §1

AKT1 = target: T8, AKT1 (Homo sapiens, UniProt P31749); details: derived from % inhibition at 1 μM
T8 construct: purchased
Procedure, shortened: as §1

TGFBR1 = target: T9, TGFBR1 (Homo sapiens, UniProt P36897); details: derived from % inhibition at 1 μM
T9 construct: purchased
T9 sequence (P36897 34-503): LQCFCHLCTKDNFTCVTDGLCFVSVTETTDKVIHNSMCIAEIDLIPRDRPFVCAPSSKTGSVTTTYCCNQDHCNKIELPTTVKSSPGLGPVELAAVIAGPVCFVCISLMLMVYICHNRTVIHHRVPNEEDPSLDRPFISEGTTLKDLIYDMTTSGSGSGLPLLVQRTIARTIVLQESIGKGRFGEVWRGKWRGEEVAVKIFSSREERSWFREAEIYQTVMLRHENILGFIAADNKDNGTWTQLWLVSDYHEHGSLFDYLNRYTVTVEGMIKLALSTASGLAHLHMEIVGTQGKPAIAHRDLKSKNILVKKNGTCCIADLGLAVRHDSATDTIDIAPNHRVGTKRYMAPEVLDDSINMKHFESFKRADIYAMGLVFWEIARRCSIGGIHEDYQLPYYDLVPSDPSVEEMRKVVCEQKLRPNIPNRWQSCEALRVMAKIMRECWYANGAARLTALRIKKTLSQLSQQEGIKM
Procedure, shortened: as §1

KDR (VEGFR) = target: T10, KDR (VEGFR) (Homo sapiens, UniProt P35968); details: for IC50: derived from % inhibition at 1 μM
T10 construct: purchased
Procedure, shortened: as §1

NEK2 (Nek2A) = target: T11, NEK2 (Nek2A) (Homo sapiens, UniProt P51955); details: for IC50: derived from % inhibition at 1 μM
T11 construct: purchased
T11 sequence (P51955 1-445): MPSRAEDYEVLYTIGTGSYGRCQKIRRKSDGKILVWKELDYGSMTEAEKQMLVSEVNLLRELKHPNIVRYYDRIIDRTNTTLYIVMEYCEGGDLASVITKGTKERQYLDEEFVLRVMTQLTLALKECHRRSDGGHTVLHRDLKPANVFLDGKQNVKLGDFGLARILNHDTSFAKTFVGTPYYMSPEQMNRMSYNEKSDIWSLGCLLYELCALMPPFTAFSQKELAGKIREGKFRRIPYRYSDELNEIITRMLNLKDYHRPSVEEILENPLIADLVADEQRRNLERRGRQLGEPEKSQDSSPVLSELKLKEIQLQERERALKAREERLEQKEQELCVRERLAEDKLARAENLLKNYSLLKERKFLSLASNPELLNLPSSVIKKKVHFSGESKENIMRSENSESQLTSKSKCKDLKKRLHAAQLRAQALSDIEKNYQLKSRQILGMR
Procedure, shortened: as §1

MARK2 = target: T12, MARK2 (Homo sapiens, UniProt Q7KZI7); details: for IC50: derived from % inhibition at 1 μM
T12 construct: purchased
Procedure, shortened: as §1

MAPK11 = target: T13, MAPK11 (Homo sapiens, UniProt Q15759); details: derived from % inhibition at 1 μM
T13 construct: purchased
Procedure, shortened: as §1

CAMKK2 = target: T14, CAMKK2 (Homo sapiens, UniProt Q96RR4); details: derived from % inhibition at 1 μM
T14 construct: purchased
Procedure, shortened: as §1

CDK2 = target: T15, CDK2 (Homo sapiens, UniProt P24941); details: for IC50: derived from % inhibition at 1 μM; for remaining activity at 1 µM: read-out: residual kinase activity CDK2
T15 construct: purchased
Procedure, shortened: as §1

T8 sequence (P31749 whole entry, species assumed): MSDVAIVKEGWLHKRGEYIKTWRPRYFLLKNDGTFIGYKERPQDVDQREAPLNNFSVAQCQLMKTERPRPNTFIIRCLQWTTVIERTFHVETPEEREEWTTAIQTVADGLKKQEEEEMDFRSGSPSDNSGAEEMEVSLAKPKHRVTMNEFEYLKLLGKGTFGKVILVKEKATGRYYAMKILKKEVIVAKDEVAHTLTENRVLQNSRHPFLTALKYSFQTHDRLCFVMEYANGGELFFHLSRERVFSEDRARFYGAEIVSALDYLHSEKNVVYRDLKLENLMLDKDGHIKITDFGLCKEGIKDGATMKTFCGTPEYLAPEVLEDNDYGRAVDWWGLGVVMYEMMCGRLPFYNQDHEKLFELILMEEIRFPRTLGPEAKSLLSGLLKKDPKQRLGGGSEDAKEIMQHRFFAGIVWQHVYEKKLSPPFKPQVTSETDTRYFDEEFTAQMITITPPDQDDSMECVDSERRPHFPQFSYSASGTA
T12 sequence (Q7KZI7 whole entry, species assumed): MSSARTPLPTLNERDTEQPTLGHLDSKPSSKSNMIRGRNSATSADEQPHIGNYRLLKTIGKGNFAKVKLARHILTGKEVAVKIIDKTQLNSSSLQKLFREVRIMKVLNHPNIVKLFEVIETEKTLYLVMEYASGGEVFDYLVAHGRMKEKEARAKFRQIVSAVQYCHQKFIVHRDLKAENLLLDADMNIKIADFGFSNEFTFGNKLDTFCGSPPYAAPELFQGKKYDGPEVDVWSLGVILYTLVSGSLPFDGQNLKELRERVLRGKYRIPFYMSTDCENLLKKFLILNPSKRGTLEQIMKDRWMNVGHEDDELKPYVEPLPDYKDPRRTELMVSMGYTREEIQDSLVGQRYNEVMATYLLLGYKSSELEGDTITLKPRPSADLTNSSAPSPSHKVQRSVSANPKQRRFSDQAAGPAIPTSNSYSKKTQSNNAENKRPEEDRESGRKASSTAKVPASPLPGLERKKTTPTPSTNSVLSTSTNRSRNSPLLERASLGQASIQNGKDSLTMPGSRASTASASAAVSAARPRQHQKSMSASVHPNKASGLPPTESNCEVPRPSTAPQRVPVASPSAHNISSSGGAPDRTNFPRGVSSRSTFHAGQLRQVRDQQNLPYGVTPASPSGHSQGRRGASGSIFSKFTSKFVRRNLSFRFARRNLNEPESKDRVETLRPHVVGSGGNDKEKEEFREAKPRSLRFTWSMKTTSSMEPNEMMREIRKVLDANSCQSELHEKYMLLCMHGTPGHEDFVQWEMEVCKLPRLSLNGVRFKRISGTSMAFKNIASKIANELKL
T4 sequence (P11309 whole entry, species assumed): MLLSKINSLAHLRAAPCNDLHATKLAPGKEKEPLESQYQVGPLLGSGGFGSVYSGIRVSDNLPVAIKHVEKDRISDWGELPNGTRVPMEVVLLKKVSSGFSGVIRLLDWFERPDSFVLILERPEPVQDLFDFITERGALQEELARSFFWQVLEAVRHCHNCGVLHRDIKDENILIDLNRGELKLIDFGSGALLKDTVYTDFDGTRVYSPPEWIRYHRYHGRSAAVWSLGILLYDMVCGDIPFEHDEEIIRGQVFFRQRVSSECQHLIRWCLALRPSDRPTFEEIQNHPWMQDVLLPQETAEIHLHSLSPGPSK
T5 sequence (Q9NQU5 whole entry, species assumed): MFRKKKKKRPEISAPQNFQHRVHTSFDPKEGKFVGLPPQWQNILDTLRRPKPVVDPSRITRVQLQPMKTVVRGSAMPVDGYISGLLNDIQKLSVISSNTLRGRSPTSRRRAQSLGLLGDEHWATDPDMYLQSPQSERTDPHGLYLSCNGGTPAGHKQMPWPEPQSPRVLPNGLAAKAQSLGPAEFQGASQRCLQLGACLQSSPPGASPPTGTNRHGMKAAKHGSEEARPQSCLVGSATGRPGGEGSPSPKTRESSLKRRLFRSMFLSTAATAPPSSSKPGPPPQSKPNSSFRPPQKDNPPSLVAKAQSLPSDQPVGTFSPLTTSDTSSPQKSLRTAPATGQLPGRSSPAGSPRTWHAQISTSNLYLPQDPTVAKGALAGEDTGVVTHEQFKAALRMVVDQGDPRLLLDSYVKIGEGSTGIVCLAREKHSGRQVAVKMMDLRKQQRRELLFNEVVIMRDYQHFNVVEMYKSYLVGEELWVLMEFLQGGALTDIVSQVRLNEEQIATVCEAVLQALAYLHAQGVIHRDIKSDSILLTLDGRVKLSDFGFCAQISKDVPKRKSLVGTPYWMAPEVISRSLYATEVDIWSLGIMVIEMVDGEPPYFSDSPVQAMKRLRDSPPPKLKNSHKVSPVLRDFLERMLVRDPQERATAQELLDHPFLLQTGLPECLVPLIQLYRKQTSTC
T14 sequence (Q96RR4 whole entry, species assumed): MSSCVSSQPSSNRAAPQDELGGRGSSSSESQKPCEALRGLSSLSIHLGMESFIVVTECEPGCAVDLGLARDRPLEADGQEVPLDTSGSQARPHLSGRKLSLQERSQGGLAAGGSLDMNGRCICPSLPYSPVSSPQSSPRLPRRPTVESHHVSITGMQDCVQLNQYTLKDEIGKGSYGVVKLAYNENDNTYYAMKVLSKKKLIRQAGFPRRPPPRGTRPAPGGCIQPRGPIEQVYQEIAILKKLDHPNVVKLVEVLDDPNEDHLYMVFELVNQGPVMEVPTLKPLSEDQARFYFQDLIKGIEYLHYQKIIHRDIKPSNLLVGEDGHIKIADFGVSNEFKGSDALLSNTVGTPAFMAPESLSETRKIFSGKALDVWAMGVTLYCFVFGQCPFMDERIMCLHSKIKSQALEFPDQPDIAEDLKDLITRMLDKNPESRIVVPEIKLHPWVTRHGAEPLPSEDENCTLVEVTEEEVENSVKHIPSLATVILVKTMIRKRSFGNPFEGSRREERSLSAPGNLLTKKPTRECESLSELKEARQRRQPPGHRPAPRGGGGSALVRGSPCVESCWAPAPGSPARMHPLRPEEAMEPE
T3 sequence (O75116 whole entry, species assumed): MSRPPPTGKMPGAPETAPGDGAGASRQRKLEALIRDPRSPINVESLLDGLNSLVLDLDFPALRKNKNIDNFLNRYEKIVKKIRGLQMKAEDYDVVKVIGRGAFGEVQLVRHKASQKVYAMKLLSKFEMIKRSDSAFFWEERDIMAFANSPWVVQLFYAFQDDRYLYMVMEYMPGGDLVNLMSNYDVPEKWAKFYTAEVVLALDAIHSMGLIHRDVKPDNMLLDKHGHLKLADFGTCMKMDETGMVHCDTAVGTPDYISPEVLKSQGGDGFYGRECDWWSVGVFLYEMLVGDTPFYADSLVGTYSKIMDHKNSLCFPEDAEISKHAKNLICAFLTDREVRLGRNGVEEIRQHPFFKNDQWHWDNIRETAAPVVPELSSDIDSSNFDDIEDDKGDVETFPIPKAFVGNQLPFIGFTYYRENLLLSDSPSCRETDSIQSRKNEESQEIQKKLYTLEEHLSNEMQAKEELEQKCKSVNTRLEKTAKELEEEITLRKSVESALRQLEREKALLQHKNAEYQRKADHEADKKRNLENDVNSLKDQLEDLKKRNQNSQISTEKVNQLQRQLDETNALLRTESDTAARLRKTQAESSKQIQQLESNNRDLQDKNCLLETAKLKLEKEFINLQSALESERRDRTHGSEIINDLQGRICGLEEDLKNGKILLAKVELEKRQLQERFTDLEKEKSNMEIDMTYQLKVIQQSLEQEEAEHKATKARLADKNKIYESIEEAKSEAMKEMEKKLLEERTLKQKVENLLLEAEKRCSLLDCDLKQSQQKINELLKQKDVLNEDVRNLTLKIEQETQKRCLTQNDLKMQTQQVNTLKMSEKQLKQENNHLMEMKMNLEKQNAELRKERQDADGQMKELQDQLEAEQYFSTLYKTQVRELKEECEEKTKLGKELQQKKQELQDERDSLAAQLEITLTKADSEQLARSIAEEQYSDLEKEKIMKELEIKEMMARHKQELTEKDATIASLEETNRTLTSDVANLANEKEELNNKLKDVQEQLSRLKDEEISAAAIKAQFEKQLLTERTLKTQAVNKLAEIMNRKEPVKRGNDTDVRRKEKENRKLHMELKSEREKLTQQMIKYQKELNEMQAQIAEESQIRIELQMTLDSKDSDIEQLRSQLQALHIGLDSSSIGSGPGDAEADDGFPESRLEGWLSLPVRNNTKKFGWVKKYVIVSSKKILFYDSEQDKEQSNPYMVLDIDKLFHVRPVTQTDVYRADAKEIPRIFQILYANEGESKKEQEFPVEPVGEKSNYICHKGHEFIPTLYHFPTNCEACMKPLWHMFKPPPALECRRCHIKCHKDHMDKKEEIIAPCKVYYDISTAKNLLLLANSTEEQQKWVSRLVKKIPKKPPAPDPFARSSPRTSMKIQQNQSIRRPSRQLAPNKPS

With `c1ccc(Cc2c[nH]c3ncsc23)cc1` [Compound A7, 6-benzyl-4H-pyrrolo[2,3-d]thiazole] the IC50 (DYRK2) was greater than 1 µM, the IC50 (EEF2K) was 10 to 100 µM and the IC50 (ROCK2 (Rock II)) was 0.01 to 1 µM. It also gave a remaining activity at 1 µM (ROCK2 (Rock II); read-out: residual kinase activity Rock II) of 36%, an IC50 (PIM1) of 10 to 100 µM and an IC50 (PAK6) greater than 1 µM. For the same compound, the IC50 (CSK) was 1 to 10 µM, the IC50 (PRKCA) was 10 to 100 µM and the IC50 (AKT1) was greater than 1 µM. For the same compound, the IC50 (TGFBR1) was 10 to 100 µM, the IC50 (KDR (VEGFR)) was 1 to 10 µM and the IC50 (NEK2 (Nek2A)) was greater than 1 µM. For the same compound, the IC50 (MARK2) was 10 to 100 µM, the IC50 (MAPK11) was 1 to 10 µM and the IC50 (CAMKK2) was 10 to 100 µM. For the same compound, the IC50 (CDK2) was 0.01 to 1 µM and the remaining activity at 1 µM (CDK2) was 41%.

`Nc1ncsc1C#Cc1cnc2[nH]ccc2c1` [Compound A22, 5-(1H-pyrrolo[2,3-b]pyridin-5-ylethynyl)thiazol-4-ylamine] gave an IC50 (DYRK2) greater than 1 µM, an IC50 (EEF2K) of 10 to 100 µM and an IC50 (ROCK2 (Rock II)) greater than 1 µM. The IC50 (PIM1) was 1 to 10 µM, the IC50 (PAK6) was 10 to 100 µM and the IC50 (CSK) was 10 to 100 µM. For the same compound, the IC50 (PRKCA) was 1 to 10 µM, the IC50 (AKT1) was 10 to 100 µM and the IC50 (TGFBR1) was 10 to 100 µM. It also gave an IC50 (KDR (VEGFR)) of 0.01 to 1 µM, a remaining activity at 1 µM (KDR (VEGFR); read-out: residual kinase activity VEGFR) of 11% and an IC50 (NEK2 (Nek2A)) greater than 1 µM. It also gave an IC50 (MARK2) of 0.01 to 1 µM, a remaining activity at 1 µM (MARK2; read-out: residual kinase activity MARK2) of 31% and an IC50 (MAPK11) greater than 1 µM. The IC50 (CAMKK2) was greater than 1 µM, the IC50 (CDK2) was 1 to 10 µM and the remaining activity at 1 µM (CDK2) was 52%.

Work on `CC(C)(C)OC(=O)Nc1nc(-c2ccncc2)sc1C#CCN1CCOCC1` [Compound A25, tert-butyl[5-(3-morpholin-4-ylprop-1-ynyl)-2-pyridin-4-ylthiazol-4-yl]-carbamate] yielded an IC50 (DYRK2) greater than 1 µM, an IC50 (EEF2K) greater than 1 µM and an IC50 (ROCK2 (Rock II)) of 10 to 100 µM. For the same compound, the IC50 (PIM1) was greater than 1 µM, the IC50 (PAK6) was 10 to 100 µM and the IC50 (CSK) was greater than 1 µM. For the same compound, the IC50 (PRKCA) was 10 to 100 µM, the IC50 (AKT1) was greater than 1 µM and the IC50 (TGFBR1) was 1 to 10 µM. The IC50 (KDR (VEGFR)) was greater than 1 µM, the IC50 (NEK2 (Nek2A)) was 1 to 10 µM and the IC50 (MARK2) was greater than 1 µM. The IC50 (MAPK11) was greater than 1 µM, the IC50 (CAMKK2) was greater than 1 µM and the IC50 (CDK2) was 10 to 100 µM.

Work on `CC(C)(C)OC(=O)Nc1ncsc1C#CCN1C(=O)c2ccccc2C1=O` [Compound A26, tert-butyl{5-[3-(1,3-dioxo-1,3-dihydroisoindol-2-yl)prop-1-ynyl]-thiazol-4-yl}carbamate] yielded an IC50 (DYRK2) greater than 1 µM, an IC50 (EEF2K) of 10 to 100 µM and an IC50 (ROCK2 (Rock II)) greater than 1 µM. For the same compound, the IC50 (PIM1) was 10 to 100 µM, the IC50 (PAK6) was greater than 1 µM and the IC50 (CSK) was 10 to 100 µM. For the same compound, the IC50 (PRKCA) was 1 to 10 µM, the IC50 (AKT1) was greater than 1 µM and the IC50 (TGFBR1) was 10 to 100 µM. For the same compound, the IC50 (KDR (VEGFR)) was greater than 1 µM, the IC50 (NEK2 (Nek2A)) was 1 to 10 µM and the IC50 (MARK2) was 1 to 10 µM. For the same compound, the IC50 (MAPK11) was greater than 1 µM, the IC50 (CAMKK2) was 10 to 100 µM and the IC50 (CDK2) was 0.01 to 1 µM. The remaining activity at 1 µM (CDK2) was 28%.

`Nc1ncsc1C#Cc1cccc(O)c1` [Compound A27, 3-(4-aminothiazol-5-ylethynyl)phenol] gave an IC50 (DYRK2) of 1 to 10 µM, an IC50 (EEF2K) of 1 to 10 µM and an IC50 (ROCK2 (Rock II)) of 10 to 100 µM. It also gave an IC50 (PIM1) of 1 to 10 µM, an IC50 (PAK6) of 10 to 100 µM and an IC50 (CSK) of 10 to 100 µM. For the same compound, the IC50 (PRKCA) was greater than 1 µM, the IC50 (AKT1) was greater than 1 µM and the IC50 (TGFBR1) was 1 to 10 µM. The IC50 (KDR (VEGFR)) was 1 to 10 µM, the IC50 (NEK2 (Nek2A)) was 1 to 10 µM and the remaining activity at 1 µM (NEK2 (Nek2A); read-out: residual kinase activity Nek2A) was 59%. The IC50 (MARK2) was 10 to 100 µM, the IC50 (MAPK11) was 1 to 10 µM and the IC50 (CAMKK2) was 10 to 100 µM. For the same compound, the IC50 (CDK2) was 10 to 100 µM.
